{
  "source": "patent US7141596B2",
  "about": "“Inhibitors of proteins that bind phosphorylated molecules” (Incyte Corporation, priority 2003, dated 2006)",
  "molecular_target": "T1, human PTP1B catalytic domain (residues 1–298) (Homo sapiens, UniProt P18031)",
  "T1 construct": "The catalytic domain (residues 1–298) of human PTP1B; His tag (N); made in house; host or cells: E. coli",
  "T1 sequence (P18031 1-298)": "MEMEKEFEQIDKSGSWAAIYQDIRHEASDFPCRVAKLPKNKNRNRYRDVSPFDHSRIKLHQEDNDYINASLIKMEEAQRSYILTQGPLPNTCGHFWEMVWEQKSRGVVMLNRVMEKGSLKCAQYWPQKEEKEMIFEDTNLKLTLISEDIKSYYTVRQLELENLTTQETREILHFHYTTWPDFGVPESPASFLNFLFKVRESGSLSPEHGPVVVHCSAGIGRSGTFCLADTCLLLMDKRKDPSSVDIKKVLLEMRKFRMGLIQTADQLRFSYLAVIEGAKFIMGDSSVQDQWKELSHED",
  "experiment": "hPTP1B in vitro activity assay (pNPP dephosphorylation)",
  "format": "biochemical",
  "conditions": "Isomer 1 compared with Isomer 2 (5S/5R diastereomers separated by chiral HPLC)",
  "protocol": "Compounds were serially diluted in DMSO and spotted into the assay plate. Both the enzyme and substrate were diluted into the assay buffer containing 25 mM tris-bis-propone (pH 7.0 @ rt) and 0.1 mg/ml of BSA. 40 of μL enzyme solution was added to the assay plate containing compounds and was incubated for 30 minutes. 40 μL of substrate solution was then added to the assay plate to initiate the reaction. The initial reaction rates of the dephosphorylation of p-nitrophenylphosphate to p-nitrophenol are measured by monitoring absorbance at 410 nm on a SpectraMax for 15–30 min.",
  "data": [
    {"smiles": "O=C(O)C(F)(F)F.O=C(O)C(F)(F)F.O=C1C[C@@H](c2ccc(C[C@H](Nc3nc4cc(F)ccc4s3)c3nc4ccccc4[nH]3)cc2)S(=O)(=O)N1.O=C1C[C@H](c2ccc(C[C@H](Nc3nc4cc(F)ccc4s3)c3nc4ccccc4[nH]3)cc2)S(=O)(=O)N1", "note": "(single isomer, unassigned; isomer 1) [4.179 Isomer 1]", "values": [
      {"measurement": "relative biological activity of the separated diastereomers in the enzyme assay", "value": "more biologically active"}
    ]}
  ]
}
